Results from paper PMC9090415, “Discovery of small molecule inhibitors of Plasmodium falciparum apicoplast DNA polymerase” (Journal of Enzyme Inhibition and Medicinal Chemistry, 2022).

Target: T1, bacteriophage T4 DNA polymerase (Enterobacteria phage T4, UniProt P04415)
T1 construct: made in house
T1 sequence (P04415 1-898): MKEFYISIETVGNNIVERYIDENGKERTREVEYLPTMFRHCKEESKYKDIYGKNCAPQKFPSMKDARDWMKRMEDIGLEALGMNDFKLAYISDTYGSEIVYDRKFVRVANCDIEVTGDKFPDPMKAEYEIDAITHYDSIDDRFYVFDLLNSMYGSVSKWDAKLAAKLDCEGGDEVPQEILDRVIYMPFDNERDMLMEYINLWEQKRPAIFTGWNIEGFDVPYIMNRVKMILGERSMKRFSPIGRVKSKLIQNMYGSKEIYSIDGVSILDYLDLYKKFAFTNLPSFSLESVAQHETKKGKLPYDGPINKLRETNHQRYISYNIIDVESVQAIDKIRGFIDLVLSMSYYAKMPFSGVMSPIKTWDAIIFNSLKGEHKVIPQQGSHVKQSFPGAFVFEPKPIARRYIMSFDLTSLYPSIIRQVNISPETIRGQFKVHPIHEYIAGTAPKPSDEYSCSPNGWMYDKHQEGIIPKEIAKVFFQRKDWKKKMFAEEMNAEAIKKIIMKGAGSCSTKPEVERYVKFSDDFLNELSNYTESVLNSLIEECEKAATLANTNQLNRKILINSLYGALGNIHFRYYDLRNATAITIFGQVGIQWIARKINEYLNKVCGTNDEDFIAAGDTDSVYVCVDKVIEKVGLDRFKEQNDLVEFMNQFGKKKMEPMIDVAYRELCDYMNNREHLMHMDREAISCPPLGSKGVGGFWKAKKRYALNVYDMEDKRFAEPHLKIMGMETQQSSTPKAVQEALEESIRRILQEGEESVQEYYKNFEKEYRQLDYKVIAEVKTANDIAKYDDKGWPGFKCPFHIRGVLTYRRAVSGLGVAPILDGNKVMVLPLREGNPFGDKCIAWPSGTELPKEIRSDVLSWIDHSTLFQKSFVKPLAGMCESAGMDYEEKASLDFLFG
Experiment: Counter-screen against bacteriophage T4 DNA polymerase
Assay type: biochemical
Details: DRC-2
Outline: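 IC50 values come from dose-response testing of each compound against T4 DNA polymerase. This B-family polymerase was purified in-house and used as the counter-screen.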

Row | Structure (SMILES) | % inhibition T4 10' (concentration 10) [%] | % inhibition T4 40' (concentration 20) [%] | % inhibition T4 10' (concentration 2.5) [%] | % inhibition T4 10' (concentration 5) [%] | % inhibition T4 40' (concentration 2.5) [%] | % inhibition T4 40' (concentration 80) [%] | % inhibition T4 90' (concentration 2.5) [%] | % inhibition T4 90' (concentration 10) [%] | % inhibition T4 180' (concentration 40) [%] | % inhibition T4 90' (concentration 5) [%] | % inhibition T4 10' (concentration 40) [%] | % inhibition T4 90' (concentration 40) [%] | % inhibition T4 180' (concentration 80) [%] | other results
1 | O=C1CCCC2=C1C(c1ccccn1)C1=C(CCCC1=O)O2 [KU0194228] | 18 | 18 | – | – | – | – | – | – | – | – | – | – | – | –
2 | O=[N+]([O-])c1ccc(/C=C/c2ccc3ccccc3n2)o1 [Molecule 21, O=N(=O)c1ccc(o1)/C=C/c1ccc2c(n1)cccc2] | – | 37 | 23 | 25 | 25 | 32 | 23 | 32 | 37 | – | – | – | – | % inhibition T4 90' (concentration 80): 37%; % inhibition T4 180' (concentration 10): 25%
3 | Cc1ccc(C(=O)/C=C/C=C/C=C/N(C)C)o1 [Molecule 96, CN(/C=C/C=C/C=C/C(=O)c1ccc(o1)C)C] | 11 | – | – | – | – | – | – | – | – | 11 | – | – | – | –
4 | Cc1nc(/N=N/c2ccc(C(=O)[O-])cc2)c(COP(=O)([O-])[O-])c(C=O)c1O.[Na+].[Na+].[Na+] [KU0261395] | – | – | -16 | -9 | -20 | -18 | -20 | -9 | -11 | -18 | -10 | -11 | -10 | % inhibition T4 10' (concentration 80): -18%; % inhibition T4 40' (concentration 5): -16%; % inhibition T4 180' (concentration 20): -9%
5 | O=C(O)CCS(=O)(=O)c1ccc(-c2ccc(S(=O)(=O)CCC(=O)O)cc2)cc1 [Molecule 32, OC(=O)CCS(=O)(=O)c1ccc(cc1)c1ccc(cc1)S(=O)(=O)CCC(=O)O] | – | -22 | -14 | – | – | – | – | – | -22 | -25 | – | -17 | -17 | % inhibition T4 40' (concentration 40): -14%; % inhibition T4 90' (concentration 20): -25%; % inhibition T4 180' (concentration 2.5): -25%
6 | O=C(c1c[nH]c2ncccc12)N1CCCC1 [Molecule 63, O=C(c1c[nH]c2c1cccn2)N1CCCC1] | – | 25 | – | – | – | – | – | – | – | – | 31 | 31 | – | % inhibition T4 10' (concentration 20): 25%
